Experiment [1] deals with JAK1 (recombinant purified GST-tagged catalytic domain) (Homo sapiens (Human), UniProt P23458). As to the kind of experiment: Jak Biochemical HTRF Assay (JAK1). The settings on record: [ATP] 31.8 μM. In a few lines:
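Under a 120 min room-temperature, ATP-initiated reaction, peptide phosphorylation was detected by Eu-pY20/streptavidin-Dylight 650 HTRF after EDTA stop. IC50 values derive from percent inhibition curves.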
In general terms: TR-FRET usually uses a lanthanide donor and a delayed reading to cut background.

In experiment [2] the target is JAK2 (recombinant purified GST-tagged catalytic domain) (Homo sapiens (Human), UniProt O60674). As to the kind of experiment: Jak Biochemical HTRF Assay (JAK2). The settings on record: [ATP] 8.5 μM. How it is done:
Jak Biochemical HTRF Assay Protocol
The ability of compounds to inhibit the activity of JAK1, JAK2, JAK3, and Tyk2 was measured using a recombinant purified GST-tagged catalytic domain for each enzyme (Invitrogen JAK1 #M4290, JAK2 #M4290, JAK3 #M4290, Tyk2 #M4290) in an HTRF format biochemical assay. […] The basic assay protocol is as follows: First, 250 nL of diluted compounds in DMSO were dispensed into the wells of a dry 384-well Black plate (Greiner #781076) using a Labcyte Echo 555 acoustic dispenser. Subsequent reagent additions employed an Agilent Bravo. […] After equilibration, 2 μL of 10×ATP in 1× assay buffer was added to initiate the kinase reaction and the plates were shaken and then incubated at room temperature for 120 minutes. […] Plates were shaken and centrifuged and then incubated 60 minutes at room temperature and then read on a Perkin Elmer Envision (λex=337 nm, λem=665 and 615 nm, TRF delay time=20 μs). HTRF signal=10,000*665 nm reading/615 nm reading. After normalization to untreated controls, the percent inhibition of the HTRF signal at each compound concentration was calculated. The plot of percent inhibition versus the log of compound concentration was fit with a 4-parameter dose response equation to calculate IC50 values.
Final reaction conditions were:
Examples of the instant invention were evaluated in JAK1 and JAK2 in vitro binding assays as described above.

Structures are written as SMILES.

In general, IC50 refers to the midpoint of a concentration-inhibition curve.

JAK2 (recombinant purified GST-tagged catalytic domain), sequence (O60674 849-1124): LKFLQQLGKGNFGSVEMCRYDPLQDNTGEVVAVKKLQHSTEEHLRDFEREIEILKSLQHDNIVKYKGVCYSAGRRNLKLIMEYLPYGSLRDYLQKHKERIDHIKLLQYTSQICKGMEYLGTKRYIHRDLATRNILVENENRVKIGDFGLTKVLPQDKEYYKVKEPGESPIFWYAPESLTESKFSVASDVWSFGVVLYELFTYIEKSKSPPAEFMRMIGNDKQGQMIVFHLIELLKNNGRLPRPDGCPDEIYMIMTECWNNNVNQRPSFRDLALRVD
JAK1 (recombinant purified GST-tagged catalytic domain), sequence (P23458 875-1153): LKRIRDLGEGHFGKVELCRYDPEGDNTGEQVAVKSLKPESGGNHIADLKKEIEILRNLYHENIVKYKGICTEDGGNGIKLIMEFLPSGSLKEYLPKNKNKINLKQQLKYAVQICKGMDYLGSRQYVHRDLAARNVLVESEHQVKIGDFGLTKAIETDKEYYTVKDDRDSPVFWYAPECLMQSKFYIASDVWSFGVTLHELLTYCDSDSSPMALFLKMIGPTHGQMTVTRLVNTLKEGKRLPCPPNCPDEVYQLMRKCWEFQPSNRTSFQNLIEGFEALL

Take `N#CC[C@@]1(n2nc(Nc3ccc(C(N)C(F)(F)F)cc3)c3c(=O)[nH]ccc32)CCCOC1` (single isomer, unassigned) [Example 5-188, {(3S)-3-[3-({4-[(1S or 1R)-1-amino-2,2,2-trifluoroethyl]phenyl}amino)-4-oxo-4,5-dihydro-1H-pyrazolo[4,3-c]pyridin-1-yl]tetrahydro-2H-pyran-3-yl}acetonitrile]: the 50% inhibitory concentration (IC50) worked out at 0.11 nM in experiment [1] and 0.34 nM in experiment [2].

As for `N#CC[C@]1(n2nc(Nc3ccnc(F)c3)c3c(=O)[nH]ccc32)CCCC[C@H]1F` [Example 5-152, 2-((1R,2R)-2-fluoro-1-(3-((2-fluoropyridin-4-yl)amino)-4-oxo-4,5-dihydro-1H-pyrazolo[4,3-c]pyridin-1-yl)cyclohexyl)acetonitrile], the concentration for half-maximal inhibition (IC50) in experiment [1] was determined as 0.09 nM; in experiment [2], 0.68 nM.

`N#CC[C@]1(n2nc(Nc3ccc4c(c3)CN(C3CCN(CC(F)(F)F)CC3)S4(=O)=O)c3c(=O)[nH]ccc32)CCOC[C@H]1F` (single isomer, unassigned) [Example 5-278, 2-((3S,4S or 3R,4R)-4-(3-((1,1-dioxido-2-(1-(2,2,2-trifluoroethyl)piperidin-4-yl)-2,3-dihydrobenzo[d]isothiazol-5-yl)amino)-4-oxo-4,5-dihydro-1H-pyrazolo[4,3-c]pyridin-1-yl)-3-fluorotetrahydro-2H-pyran-4-yl)acetonitrile]: the half-maximal inhibitory concentration (IC50) in experiment [1] was 0.2 nM; in experiment [2], 2.65 nM.

As to `CN(C(C)(C)C)S(=O)(=O)c1ccc(Nc2nn([C@]3(CC#N)CCCOC3)c3cc[nH]c(=O)c23)cc1` [Example 5-182, N-tert-butyl-4-({1-[(3S)-3-(cyanomethyl)tetrahydro-2H-pyran-3-yl]-4-oxo-4,5-dihydro-1H-pyrazolo[4,3-c]pyridin-3-yl}amino)-N-methylbenzenesulfonamide], the 50% inhibitory concentration (IC50) stood at 0.25 nM in experiment [1] and 0.57 nM in experiment [2].

Consider `Cc1cc(Nc2nn(C3(CC#N)CCN(C(=O)OC(C)(C)C)CC3)c3cc[nH]c(=O)c23)ccc1C(=O)N1CC2CCC(C1)O2` [Example 21-12, tert-butyl-4-(3-((4-(8-oxa-3-azabicyclo[3.2.1]octane-3-carbonyl)-3-methylphenyl)amino)-4-oxo-4,5-dihydro-1H-pyrazolo[4,3-c]pyridin-1-yl)-4-(cyanomethyl)piperidine-1-carboxylate], for which the values for the concentration for half-maximal inhibition (IC50) in experiment [1] and in experiment [2] were 0.26 nM and 0.18 nM, respectively.

In the case of `CC(C)(C)N1Cc2cc(Nc3nn([C@]4(CC#N)CCOC[C@@H]4F)c4cc[nH]c(=O)c34)ccc2S1(=O)=O` (single isomer, unassigned) [Example 5-256, 2-((3R,4R or 3S,4S)-4-(3-((2-(tert-butyl)-1,1-dioxido-2,3-dihydrobenzo[d]isothiazol-5-yl)amino)-4-oxo-4,5-dihydro-1H-pyrazolo[4,3-c]pyridin-1-yl)-3-fluorotetrahydro-2H-pyran-4-yl)acetonitrile], the 50% inhibitory concentration (IC50) in experiment [1] stood at 0.04 nM; in experiment [2], 0.06 nM.

Consider `CC(C)(C)OC(=O)N1CCC(CC#N)(n2nc(Nc3ccc(C4(C(F)(F)F)CCNC4)cc3)c3c(=O)[nH]ccc32)CC1` (single isomer, unassigned) [Example 5-282, (S or R) tert-butyl 4-(cyanomethyl)-4-(4-oxo-3-((4-(3-(trifluoromethyl)pyrrolidin-3-yl)phenyl)amino)-4,5-dihydro-1H-pyrazolo[4,3-c]pyridin-1-yl)piperidine-1-carboxylate], for which the IC50 in experiment [1] is 0.33 nM; in experiment [2] it was 0.49 nM.

Regarding `N#CC[C@]1(n2nc(Nc3ccc([C@@]4(C(F)(F)F)CCCCN4)cc3)c3c(=O)[nH]ccc32)CCOC[C@H]1F` (single isomer, unassigned) [Example 5-264, 2-((3S,4S or 3R,4R)-3-fluoro-4-(4-oxo-3-((4-((R or S)-2-(trifluoromethyl)piperidin-2-yl)phenyl)amino)-4,5-dihydro-1H-pyrazolo[4,3-c]pyridin-1-yl)tetrahydro-2H-pyran-4-yl)acetonitrile], the 50% inhibitory concentration (IC50) in experiment [1] came out at 0.51 nM; in experiment [2] it was 0.79 nM.

As to `N#CC[C@]1(n2nc(Nc3ccc(C#N)cc3)c3c(=O)[nH]ccc32)CCOC1` (single isomer, unassigned) [Example 5-240, 4-({1-[(3S or 3R)-3-(cyanomethyl)tetrahydrofuran-3-yl]-4-oxo-4,5-dihydro-1H-pyrazolo[4,3-c]pyridin-3-yl}amino)benzonitrile], the figures for the IC50 in experiment [1] and in experiment [2] were 13 nM and 79.9 nM, respectively.

Consider `CC(C)(C)OC(=O)N1CCC(CC#N)(n2nc(Nc3ccnc(F)c3)c3c(=O)[nH]ccc32)CC1` [Example 5-78, tert-butyl 4-(cyanomethyl)-4-{3-[(2-fluoropyridin-4-yl)amino]-4-oxo-4,5-dihydro-1H-pyrazolo[4,3-c]pyridin-1-yl}piperidine-1-carboxylate], for which the IC50 in experiment [1] was found to be 0.18 nM; in experiment [2], 2.12 nM.

As for `Cc1cc(Nc2nn(C3(CC#N)CCN(C(=O)OC(C)(C)C)CC3)c3cc[nH]c(=O)c23)ccc1C(=O)N1C2CCC1COC2` [Example 21-13, tert-butyl 4-(cyanomethyl)-4-{3-[(5-methyl-4-{3-oxa-8-azabicyclo[3.2.1]octan-8-ylcarbonyl}cyclohexa-1,3,5-trien-1-yl)amino]-4-oxo-5H-pyrazolo[4,3-c]pyridin-1-yl}piperidine-1-carboxylate], the IC50 was 0.27 nM in experiment [1] and 0.2 nM in experiment [2].

With `N#CC[C@@]1(n2nc(Nc3ccc(S(=O)(=O)N4CCOCC4)cc3)c3c(=O)[nH]ccc32)CCCOC1` [Example 5-204, [(3S)-3-(3-{[4-(morpholin-4-ylsulfonyl)phenyl]amino}-4-oxo-4,5-dihydro-1H-pyrazolo[4,3-c]pyridin-1-yl)tetrahydro-2H-pyran-3-yl]acetonitrile], the half-maximal inhibitory concentration (IC50) turned out to be 0.29 nM in experiment [1] and 0.48 nM in experiment [2].

In the case of `Cc1cc(Nc2nn([C@@]3(CC#N)CCOC[C@H]3F)c3cc[nH]c(=O)c23)ccc1C(=O)N1CCOCC1` (single isomer, unassigned) [Example 5-257, 2-((3S,4S or 3R,4R)-3-fluoro-4-(3-(3-methyl-4-(morpholine-4-carbonyl)phenylamino)-4-oxo-4,5-dihydropyrazolo[4,3-c]pyridin-1-yl)-tetrahydro-2H-pyran-4-yl)acetonitrile], the figures for the IC50 in experiment [1] and in experiment [2] were 2.08 nM and 3.17 nM, respectively.

`N#CC[C@@]1(n2nc(Nc3ccc(S(=O)(=O)N4CCC4)cc3)c3c(=O)[nH]ccc32)CCCOC1` [Example 5-105, [(3S)-3-(3-{[4-(azetidin-1-ylsulfonyl)phenyl]amino}-4-oxo-4,5-dihydro-1H-pyrazolo[4,3-c]pyridin-1-yl)tetrahydro-2H-pyran-3-yl]acetonitrile]: the IC50 in experiment [1] came out at 0.23 nM; in experiment [2], 0.55 nM.

Consider `CC(F)(F)C(=O)N1CCC(CC#N)(n2nc(Nc3ccc4c(c3)CN(C(C)(C)C)S4(=O)=O)c3c(=O)[nH]ccc32)CC1` [Example 5-26, 2-(4-(3-((2-(tert-butyl)-1,1-dioxido-2,3-dihydrobenzo [d]isothiazol-5-yl)amino)-4-oxo-4,5-dihydro-1H-pyrazolo[4,3-c]pyridin-1-yl)-1-(2,2-difluoro-propanoyl)piperidin-4-yl) acetonitrile], for which the IC50 in experiment [1] turned out to be 0.09 nM; in experiment [2], 0.1 nM.

On to `COC(c1ccc(Nc2nn([C@@]3(CC#N)CCN(C(=O)OC(C)(C)C)C[C@H]3F)c3cc[nH]c(=O)c23)cc1)C(F)(F)F` (some centres unmarked) [Example 5-275], for which the IC50 in experiment [1] came to 0.17 nM; in experiment [2], 0.09 nM.

Regarding `CN(C)S(=O)(=O)c1ccc(Nc2nn(C3(CC#N)CCN(C(=O)CCC#N)CC3)c3cc[nH]c(=O)c23)cc1` [Example 9-22, 4-({1-[4-(cyanomethyl)-1-(3-cyanopropanoyl)piperidin-4-yl]-4-oxo-4,5-dihydro-1H-pyrazolo[4,3-c]pyridin-3-yl}amino)-N,N-dimethylbenzenesulfonamide], the IC50 in experiment [1] amounted to 0.09 nM; in experiment [2] it was 0.21 nM.

As to `CC(C)(C)OC(=O)N1CCC(CC#N)(n2nc(Nc3ccc(C4(C(F)(F)F)CCN(Cc5ccccc5)C4)cc3)c3c(=O)[nH]ccc32)CC1` (single isomer, unassigned) [Example 5-281, (S or R) tert-butyl 4-(3-((4-(1-benzyl-3-(trifluoromethyl)pyrrolidin-3-yl)phenyl)amino)-4-oxo-4,5-dihydro-1H-pyrazolo[4,3-c]pyridin-1-yl)-4-(cyanomethyl)piperidine-1-carboxylate], the IC50 was found to be 7.9 nM in experiment [1] and 10 nM in experiment [2].

Regarding `CC(C)(C)OC(=O)N1CCC(CC#N)(n2nc(Nc3ccc(S(=O)(=O)N4CCCCC4)cc3)c3c(=O)[nH]ccc32)CC1` [Example 5-293, tert-butyl 4-(cyanomethyl)-4-(4-oxo-3-((4-(piperidin-1-ylsulfonyl)phenyl)amino)-4,5-dihydro-1H-pyrazolo[4,3-c]pyridin-1-yl)piperidine-1-carboxylate], the half-inhibitory concentration (IC50) in experiment [1] came to 0.43 nM; in experiment [2], 0.68 nM.

Values taken from patent US9957264B2 (Merck Sharp & Dohme Corp., priority 2013, dated 2018).
